The results in this text go back to paper PMC8048873 (The Plant Journal, 2021).

This experiment has as its target T1, CERK1 ectodomain (CERK1-ECD; LYK1) (Arabidopsis thaliana, UniProt A8R7E6).
T1 sequence (A8R7E6 24-232): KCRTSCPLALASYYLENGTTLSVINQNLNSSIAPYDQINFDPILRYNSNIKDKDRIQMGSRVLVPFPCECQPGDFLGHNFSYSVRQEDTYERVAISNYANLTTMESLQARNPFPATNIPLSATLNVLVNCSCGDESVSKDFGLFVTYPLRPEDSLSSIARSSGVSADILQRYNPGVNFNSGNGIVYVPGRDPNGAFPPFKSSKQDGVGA
In words: isothermal titration calorimetry. The class given is binding. To be noted: 20 mM MES pH 6.5, 150 mM NaCl, 25°C; 50 µM protein in cell, ligand 500 µM or 1 mM; n = 2. (In general: ITC needs no label: the signal is the heat of the interaction.)

The term Kd denotes a measure of binding affinity in units of concentration.

For `CC(=O)N[C@H]1[C@H](O[C@H]2[C@H](O)[C@@H](NC(C)=O)[C@H](O[C@H]3[C@H](O)[C@@H](NC(C)=O)C(O)O[C@@H]3CO)O[C@@H]2CO)O[C@H](CO)[C@@H](O[C@@H]2O[C@H](CO)[C@@H](O[C@@H]3O[C@H](CO)[C@@H](O[C@@H]4O[C@H](CO)[C@@H](O)[C@H](O)[C@H]4NC(C)=O)[C@H](O)[C@H]3NC(C)=O)[C@H](O)[C@H]2NC(C)=O)[C@@H]1O` (stereo partly drawn) [1,4‐β‐D‐(GlcNAc)6, chitohexaose], the dissociation constant Kd is 37.5 ± 10 µM.
